What was measured:
Meloidogyne incognita = Meloidogyne incognita test; format: in vivo; conditions: 20 ppm; lettuce; after 14 days
Protocol: To produce a suitable preparation of active ingredient, 1 part by weight of active ingredient is mixed with the stated amount of solvent and the concentrate is diluted with water to the desired concentration. Vessels are filled with sand, active ingredient solution, an egg/larvae suspension of the southern root-knot nematode (Meloidogyne incognita) and lettuce seeds. The lettuce seeds germinate and the plants develop. The galls develop on the roots. After 14 days, the nematicidal efficacy in % is determined by the formation of galls. 100% means that no galls were found; 0% means that the number of galls on the treated plants corresponds to the untreated control.

Ctenocephalides felis [1] = test: Ctenocephalides felis in vitro contact test with adult cat fleas; format: in vivo; conditions: application rate 5 μg/cm^2 (=500 g/ha), after 48 h
Protocol: For the coating of the test tubes, 9 mg of active ingredient are first dissolved in 1 ml of acetone p.a. and then diluted to the desired concentration with acetone p.a. 250 μl of the solution are distributed homogeneously on the inner walls and the base of a 25 ml test tube by turning and rocking on an orbital shaker (rocking rotation at 30 rpm for 2 h). With 900 ppm active ingredient solution and internal surface area 44.7 cm^2, given homogeneous distribution, an area-based dose of 5 μg/cm^2 is achieved. After the solvent has evaporated off, the tubes are populated with 5-10 adult cat fleas (Ctenocephalides felis), sealed with a perforated plastic lid and incubated in a horizontal position at room temperature and ambient humidity. After 48 h, efficacy is determined. To this end, the test tubes are stood upright and the fleas are knocked to the base of the tube. Fleas which remain motionless at the base or move in an uncoordinated manner are considered to be dead or moribund. […] 100% efficacy means that all the fleas were dead or moribund. 0% efficacy means that no fleas were harmed.

Lucilia cuprina = Lucilia cuprina test; format: in vivo; conditions: 100 ppm; L1 larvae; after 2 days
Protocol: To produce a suitable active ingredient preparation, 10 mg of active ingredient are mixed with 0.5 ml of dimethyl sulphoxide, and the concentrate is diluted with water to the desired concentration. About 20 L1 larvae of the Australian sheep blowfly (Lucilia cuprina) are transferred into a test vessel containing minced horsemeat and the active ingredient preparation of the desired concentration. After 2 days, the kill in % is determined. 100% means that all the larvae have been killed; 0% means that no larvae have been killed.

Myzus persicae = Myzus persicae spray test; format: in vivo; conditions: foliar, 100 g/ha, Chinese cabbage leaf discs, after 5-6 days, read-out: efficacy
Protocol: (§1) To produce a suitable active ingredient preparation, 1 part by weight of active ingredient is dissolved with the stated parts by weight of solvent and made up with water containing an emulsifier concentration of 1000 ppm until the desired concentration is attained. To produce further test concentrations, the preparation is diluted with emulsifier-containing water. Discs of Chinese cabbage leaves (Brassica pekinensis) infested by all stages of the green peach aphid (Myzus persicae) are sprayed with an active ingredient preparation of the desired concentration. After 5-6 days, the efficacy in % is determined. 100% means that all the aphids have been killed; 0% means that no aphids have been killed.

Musca domestica = Musca domestica test; format: in vivo; conditions: 4 ppm; adult houseflies; after 2 days
Protocol: To produce a suitable active ingredient preparation, 10 mg of active ingredient are mixed with 0.5 ml of dimethyl sulphoxide, and the concentrate is diluted with water to the desired concentration. Vessels containing a sponge treated with sugar solution and the active ingredient preparation of the desired concentration are populated with 10 adult houseflies (Musca domestica). After 2 days, the kill in % is determined. 100% means that all of the flies have been killed; 0% means that none of the flies have been killed.

Ctenocephalides felis [2] = test: Ctenocephalides felis oral test; format: in vivo; conditions: 100 ppm in citrated cattle blood; adult cat fleas; after 2 days
Protocol: For the purpose of production of a suitable active ingredient preparation, 10 mg of active ingredient are mixed with 0.5 ml of dimethyl sulphoxide. Dilution with citrated cattle blood gives the desired concentration. About 20 unfed adult cat fleas (Ctenocephalides felis) are placed into a chamber which is closed at the top and bottom with gauze. A metal cylinder whose bottom end is closed with parafilm is placed onto the chamber. The cylinder contains the blood/active ingredient preparation, which can be imbibed by the fleas through the parafilm membrane. After 2 days, the kill in % is determined. 100% means that all of the fleas have been killed; 0% means that none of the fleas have been killed.

Phaedon cochleariae = Phaedon cochleariae spray test; format: in vivo; conditions: foliar, 168 h, 500 g/ha, larvae on Chinese cabbage leaf discs, after 7 days, read-out: efficacy
Protocol: as §1, with “pekinensis)” for “pekinensis) infested by all stages of the green peach aphid (Myzus persicae)”, “concentration and, after drying, populated with larvae of the mustard beetle (Phaedon cochleariae).” for “concentration.”, “7” for “5-6”, “beetle larvae” for “aphids”

Spodoptera frugiperda = Spodoptera frugiperda spray test; format: in vivo; conditions: foliar, 168 h, 500 g/ha, caterpillars on maize leaf discs, after 7 days, read-out: efficacy
Protocol: To produce a suitable active ingredient preparation, 1 part by weight of active ingredient is dissolved with the stated parts by weight of solvent and made up with water containing an emulsifier concentration of 1000 ppm until the desired concentration is attained. To produce further test concentrations, the preparation is diluted with emulsifier-containing water. Leaf discs of maize (Zea mays) are sprayed with an active ingredient preparation of the desired concentration and, after drying, populated with caterpillars of the armyworm (Spodoptera frugiperda). After 7 days, the efficacy in % is determined. 100% means that all the caterpillars have been killed; 0% means that no caterpillar has been killed.

[3] = log P by HPLC on reversed-phase column (EEC Directive 79/831 Annex V.A8); format: physicochemical; conditions: reversed-phase C18 HPLC column; pH 7.8, aqueous ammonium hydrogencarbonate/acetonitrile; 55° C.; read-out: log P (neutral)
Protocol: The log P values are measured according to EEC Directive 79/831 Annex V.A8 by HPLC (high-performance liquid chromatography) on a reversed-phase column (C 18). Temperature: 55° C. The LC-MS determination in the acidic range is effected at pH 2.7 using 0.1% aqueous formic acid and acetonitrile (contains 0.1% formic acid) as eluents; linear gradient from 10% acetonitrile to 95% acetonitrile. Called log P (HCOOH) in the table. LC-MS determination in the neutral range is effected at pH 7.8 with 0.001 molar aqueous ammonium hydrogencarbonate solution and acetonitrile as eluents; linear gradient from 10% acetonitrile to 95% acetonitrile. Called log P (neutral) in the table. Calibration is carried out using unbranched alkan-2-ones (having 3 to 16 carbon atoms) with known log P values (log P values determined on the basis of the retention times by linear interpolation between two successive alkanones).

## CCS(=O)(=O)c1cc2ccccc2nc1-c1nc2cc(C(F)(F)F)ncc2n1C [Example I-1, 3-Ethylsulphonyl-2-[3-methyl-6-(trifluoromethyl)imidazo[4,5-c]pyridin-2-yl]quinoline]
Meloidogyne incognita
  nematicidal efficacy (formation of galls): 70%
Ctenocephalides felis [1]
  efficacy: 100%
Lucilia cuprina
  efficacy (kill): 100%
Myzus persicae
  pest or weed control at 100 g/ha: 90%
Musca domestica
  efficacy (kill): 75%
Ctenocephalides felis [2]
  efficacy (kill): 100%
Phaedon cochleariae
  pest or weed control at 500 g/ha: 100%
Spodoptera frugiperda
  pest or weed control at 500 g/ha: 100%
[3]
  chromatographic logP: 2.75

Reference: US10550116B2, “Fused bicyclic heterocycle derivatives as pesticides” (BAYER CROPSCIENCE AKTIENGESELLSCHAFT, priority 2015, dated 2020)
